Consider 23 molecules from the Kinase Knowledgebase extract (Sharma et al. 2016).

The target of one assay is CDK2 (UniProt P24941). As to the kind of experiment: Enzyme Assay.
Conditions: not given
One may read the IC50 as the point on the concentration scale where inhibition reaches its midpoint. High values mean weaker potency in that assay, low ones greater potency in that assay. `COC(COc1nc(N)nc2[nH]cnc12)(OC)c1ccccc1` showed an IC50 of more than 100 µM.

In turn, `Nc1nc(OCC2COc3ccccc3O2)c2nc[nH]c2n1` (stereo not drawn) registered an IC50 of more than 100 µM.

The molecule `C=CCOc1nc(N)nc2[nH]cnc12` came in with an IC50 of more than 100 µM.

The molecule `CC(C)C(=O)COc1nc(N)nc2[nH]cnc12` displayed an IC50 of more than 100 µM.

`Nc1nc(OCCc2ccccc2)c2nc[nH]c2n1`: the IC50 was more than 100 µM.

`CCOC(C)(COc1nc(N)nc2[nH]cnc12)OCC` registered an IC50 of more than 100 µM.

For `COCC(COc1nc(N)nc2[nH]cnc12)OC` (stereo not drawn), the IC50 is more than 100 µM.

For `Nc1nc(OCc2ccc3ccccc3c2)c2nc[nH]c2n1`, the IC50 was more than 100 µM.

Turning to `C=CCOc1ncnc2[nH]cnc12`, the IC50 is more than 100 µM.

Turning to `c1nc(OCC2CCCCO2)c2nc[nH]c2n1` (stereo not drawn), the IC50 was more than 100 µM.

On to `CC1(C)OCC(COc2nc(N)nc3[nH]cnc23)O1` (stereo not drawn), for which the IC50 was more than 100 µM.

In turn, `C=C(C)C1CC=C(COc2nc(N)nc3[nH]cnc23)CC1` (stereo not drawn) returned an IC50 of more than 100 µM.

Take `Nc1nc(OCc2cccc3ccccc23)c2nc[nH]c2n1`: the IC50 is more than 100 µM.

Molecule `Nc1nc(OCC23CC4CC(CC(C4)C2)C3)c2nc[nH]c2n1` registered an IC50 of more than 100 µM.

As to `Nc1nc(OCC(O)CO)c2nc[nH]c2n1` (stereo not drawn), the IC50 was more than 100 µM.

`CC(C)C1(COc2nc(N)nc3[nH]cnc23)OCCO1` came in with an IC50 of more than 100 µM.

Regarding `Nc1nc(OCC2CCCCO2)c2nc[nH]c2n1` (stereo not drawn), the IC50 is more than 100 µM.

As for `Nc1nc(OCC2CCCC2)c2nc[nH]c2n1`, the IC50 is more than 100 µM.

`COC1OC(COc2nc(N)nc3[nH]cnc23)C2OC(C)(C)OC12` (stereo not drawn) came in with an IC50 of more than 100 µM.

`CCC(COc1nc(N)nc2[nH]cnc12)(OC)OC` showed an IC50 of more than 100 µM.

The molecule `Nc1nc(OCC2COC3(CCCCC3)O2)c2nc[nH]c2n1` (stereo not drawn) came in with an IC50 of more than 100 µM.

As to `CC1(C)OC2OC(COc3nc(N)nc4[nH]cnc34)C3OC(C)(C)OC3C2O1` (stereo not drawn), the IC50 was more than 100 µM.

Still in this assay, the particulars now being: concentration not given here.
Broadly, the inhibition is the relative decrease from the control value, in per cent. A higher inhibition goes with a strong effect. `Cc1ccc(N=Nc2c(N)nc(N)nc2OCC2CCCCC2)cc1` displayed an inhibition of 6%.
